Test results from US20090036389A1, “Polymeric Micelle Formulations of Hydrophobic Compounds and Methods” (priority 2002, published 2009).

What was measured:
[1] = Drug loading of PEG-b-PCL (5000:4000) micelles, cosolvent evaporation versus dialysis; assay type: physicochemical

Protocol for bovine erythrocytes: EDTA-anticoagulated bovine blood was diluted in PBS, pH=7.2. The erythrocytes were separated by centrifugation for 10 min at 3000 rpm. The supernatant was removed and discarded. The packed cell volume (PCV) was washed three more times with PBS. The PCV was diluted appropriately in PBS to obtain suspensions of 8×10^7 and 1.48×10^8 cells/mL. Cell counts were preformed using an Improved Neubauer Brightline hemacytometer (depth=0.1 mm) from Hausser Scientific (Horsham, Pa.). The AmB/polymer formulations and polymer blanks were brought to room temperature and reconstituted with 1.0 mL of PBS just prior to use. 1.85 mL of the 8×10^7 cells/mL suspension was incubated at 37° C. in a shaking water bath (75 rpm) with 150 μL of AmB/polymer formulation, polymer blank containing no AmB, or PBS buffer (control) for 24 h. […] The supernatant was collected, and hemoglobin content was determined by absorbance at 542 nm. […] Percent hemolysis is reported by 100(Abss-Absb)/(Abs1-Absb) where Abss is the absorbance of the sample, Absb is the average absorbance of the buffer, and Abss is the average absorbance of the lysed samples. […]
An 8 mg/mL AmB in DMSO stock solution was prepared. […] The samples were collected over time, and percent hemolysis was determined as described above.

SMILES	% Yield of Drug ([1]; Cosolvent Evaporation)	% Yield of Drug ([1]; Dialysis)	Final Drug/Polymer Mole Ratio ([1]; Cosolvent Evaporation)	Final Drug/Polymer Mole Ratio ([1]; Dialysis)	time-dependent hemolytic profile / onset of hemolysis (bovine erythrocytes)
CC(C)OC(=O)C(C)(C)Oc1ccc(C(=O)c2ccc(Cl)cc2)cc1 [Fenofibrate, 2-[4-(4-chlorobenzoyl)phenoxy]-2-methylpropanoic acid 1-methylethyl ester]	88%	31%			
C[C@@H]1[C@H](O)[C@@H](C)/C=C/C=C/C=C/C=C/C=C/C=C/C=C/[C@H](O[C@@H]2O[C@H](C)[C@@H](O)[C@H](N)[C@@H]2O)C[C@@H]2O[C@](O)(C[C@@H](O)C[C@@H](O)[C@H](O)CC[C@@H](O)C[C@@H](O)CC(=O)O[C@H]1C)C[C@H](O)[C@H]2C(=O)O [Free AmB, amphotericin B]	48%	25%	0.11	0.055	immediate hemolysis
